Assays:
Bcl-2 = Bcl-2 (Homo sapiens, UniProt P10415); test: Bcl-2 binding affinity analysis (fluorescence polarization binding assay); conditions: read-out: BcI2 (Ki, Bcl-2 binding affinity)
Bcl-xL = Bcl-xL (Homo sapiens, UniProt Q07817); test: Bcl-xL binding affinity analysis (fluorescence polarization binding assay); conditions: read-out: BcI-XI (Ki, Bcl-xL binding affinity)
Bcl-xL, sequence (Q07817 whole entry): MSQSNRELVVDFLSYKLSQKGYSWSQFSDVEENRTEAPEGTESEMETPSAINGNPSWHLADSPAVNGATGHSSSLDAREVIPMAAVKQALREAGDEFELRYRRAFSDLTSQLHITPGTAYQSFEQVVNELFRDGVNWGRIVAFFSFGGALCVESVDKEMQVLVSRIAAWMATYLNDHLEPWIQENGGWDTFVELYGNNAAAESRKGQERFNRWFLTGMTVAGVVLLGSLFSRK

Bcl-2, sequence (P10415 whole entry): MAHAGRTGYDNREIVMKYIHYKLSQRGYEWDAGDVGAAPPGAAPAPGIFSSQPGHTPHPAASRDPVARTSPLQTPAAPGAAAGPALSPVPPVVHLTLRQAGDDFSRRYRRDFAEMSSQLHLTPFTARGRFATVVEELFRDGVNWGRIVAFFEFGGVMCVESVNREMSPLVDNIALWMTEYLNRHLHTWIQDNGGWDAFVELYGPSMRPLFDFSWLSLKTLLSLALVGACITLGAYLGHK

| Structure (SMILES) | Ki (Bcl-2) [nM] | Ki (Bcl-xL) [nM] |
| --- | --- | --- |
| COc1c(CN2O[C@@H](CO)[C@@H]([C@H](C)O)[C@H]2C(=O)N[C@H]2C[C@H]3C[C@@H]([C@@H]2C)C3(C)C)cccc1-c1cc(C(=O)N(C)[C@@H](Cc2ccccc2)CN(C)C)cc(N(C)C)c1 [Compound 311] | < 1 | < 1000 |
| CCN1CCC[C@@H]1CNC(=O)c1cc(-c2cccc(CN3O[C@@H](CO)[C@@H]([C@H](C)O)[C@H]3C(=O)N[C@H]3C[C@H]4C[C@@H]([C@@H]3C)C4(C)C)c2OC)cc(N(C)C)c1 [Compound 312] | < 1 | < 1000 |
| COc1c(CN2O[C@@H](CO)[C@@H]([C@H](C)O)[C@H]2C(=O)N[C@H]2C[C@H]3C[C@@H]([C@@H]2C)C3(C)C)cccc1-c1cc(C(=O)N[C@H](Cc2ccccc2)CN2CCN(C)CC2)cc(N(C)C)c1 [Compound 313] | < 1 | < 1000 |
| COc1c(CN2O[C@@H](CO)[C@@H]([C@H](C)O)[C@H]2C(=O)N[C@H]2C[C@H]3C[C@@H]([C@@H]2C)C3(C)C)cccc1-c1cc(C(=O)N[C@@H](CC(C)C)CN2CCN(C)CC2)cc(N(C)C)c1 [Compound 314] | < 1 | < 1000 |
| COc1c(CN2O[C@@H](CO)[C@@H]([C@H](C)O)[C@H]2C(=O)N[C@H]2C[C@H]3C[C@@H]([C@@H]2C)C3(C)C)cccc1-c1cc(C(=O)N[C@@H](CC(C)C)CN2CCCC2)cc(N(C)C)c1 [Compound 320] | < 1 | < 1000 |
| COc1c(CN2O[C@@H](CO)[C@@H]([C@H](C)O)[C@H]2C(=O)N[C@H]2C[C@H]3C[C@@H]([C@@H]2C)C3(C)C)cc(Cl)cc1-c1cc(C(=O)NCCc2ccccc2)cc(N(C)C)c1 [Compound 321] | > 9 | 5000 to 10000 |

Other lines, results leading:

| Ki (Bcl-2) [nM] | Ki (Bcl-xL) [nM] | Structure (SMILES) |
| --- | --- | --- |
| < 1 | < 1000 | COc1c(CN2O[C@@H](CO)[C@@H]([C@H](C)O)[C@H]2C(=O)N[C@H]2C[C@H]3C[C@@H]([C@@H]2C)C3(C)C)cccc1-c1cc(C(=O)N[C@@H](Cc2ccccc2)CN(C)C)cc(N(C)CCO)c1 [Compound 285] |
| < 1 | < 1000 | COc1c(CN2O[C@@H](CO)[C@@H]([C@H](C)O)[C@H]2C(=O)N[C@H]2C[C@H]3C[C@@H]([C@@H]2C)C3(C)C)cccc1-c1cc(C(=O)N[C@H](CN(C)C)[C@@H](NS(C)(=O)=O)c2ccccc2)cc(N(C)CCO)c1 [Compound 290] |
| < 1 | < 1000 | COc1c(CN2O[C@@H](CO)[C@@H]([C@H](C)O)[C@H]2C(=O)N[C@H]2C[C@H]3CC([C@@H]2C)C3(C)C)cccc1-c1cc(C(=O)N[C@@H](Cc2ccccc2)CN(C)C)cc(N2CCC[C@@H]2CO)c1 [Compound 296] |
| < 1 | < 1000 | COc1c(CN2O[C@@H](CO)[C@@H]([C@H](C)O)[C@H]2C(=O)N[C@H]2C[C@H]3C[C@@H]([C@@H]2C)C3(C)C)cccc1-c1cc(C(C)=O)cc(C(=O)N[C@@H](Cc2ccccc2)CN(C)C)c1 [Compound 299] |
| < 1 | 1000 to 5000 | COc1c(CN2O[C@@H](CN)[C@@H]([C@H](C)O)[C@H]2C(=O)N[C@H]2C[C@H]3C[C@@H]([C@@H]2C)C3(C)C)cccc1-c1cc(C(=O)N[C@@H](Cc2ccccc2)CN(C)C)cc(N(C)CCO)c1 [Compound 302] |
| < 1 | < 1000 | COc1c(CN2O[C@@H](CO)[C@@H]([C@H](C)O)[C@H]2C(=O)N[C@H]2C[C@H]3C[C@@H]([C@@H]2C)C3(C)C)cccc1-c1cc(C(=O)N[C@@H](Cc2ccccc2)CN(C)C)cc(N(C)CC(=O)O)c1 [Compound 306] |
| < 1 | < 1000 | COc1c(CN2O[C@@H](CO)[C@@H]([C@H](C)O)[C@H]2C(=O)N[C@H]2C[C@H]3C[C@@H]([C@@H]2C)C3(C)C)cccc1-c1cc(C(=O)N[C@@H](Cc2ccccc2)CN(C)C)cc(N(C)CC(=O)N(C)C)c1 [Compound 308] |
| < 1 | < 1000 | CNC(=O)CN(C)c1cc(C(=O)N[C@@H](Cc2ccccc2)CN(C)C)cc(-c2cccc(CN3O[C@@H](CO)[C@@H]([C@H](C)O)[C@H]3C(=O)N[C@H]3C[C@H]4C[C@@H]([C@@H]3C)C4(C)C)c2OC)c1 [Compound 309] |
| < 1 | < 1000 | COc1c(CN2O[C@@H](CO)[C@@H]([C@H](C)O)[C@H]2C(=O)N[C@H]2C[C@H]3C[C@@H]([C@@H]2C)C3(C)C)cccc1-c1cc(C(=O)N[C@@H](Cc2ccccc2)CN(C)C)cc(N(C)CC(N)=O)c1 [Compound 310] |

Source: patent US8178690B2, “Compounds and methods for inhibiting the interaction of BCL proteins with binding partners” (Infinity Pharmaceuticals, Inc., priority 2006, dated 2012)
